Like-named read-outs stand apart in the source and are kept apart here.
Tests used:
[1] = target: Cathepsin D (Cat D) (Homo sapiens (Human), UniProt P07339); assay: In vitro enzymatic Cathepsin D (Cat D) FRET assay; type: biochemical; conditions: read-out: CatD IC50
Protocol: In Vitro Enzymatic Cathepsin D (Cat D) FRET (Fluorescence Resonance Energy Transfer) Assay Recombinant Cat D was expressed in CHO cells. […] The Cat D enzyme (9 nM) is pre-incubated for one hour with inhibitors, typically in about 1 uL of DMSO according to a serial dilution, is added thereto. […] The FRET assay is terminated with by addition of Tris buffer, which raises the pH to neutrality, and the fluorescence is determined. The FRET substrate is a peptide with commercially available fluorophore and quencher, on opposite sides of the BACE cleavage site. The Cat D substrate peptide sequence is based on sequence #1 of Table 1 from Gulnik et al. […] Where available, the in-vitro Cat D FRET assay data for each of the Examples, conducted by the first procedure, is provided.

[2] = target: Beta Secretase enzyme (BACE1) (Homo sapiens (Human), UniProt P56817); assay: In vitro enzymatic BACE FRET assay; type: biochemical
Protocol: In Vitro Enzymatic BACE FRET (Fluorescence Resonance Energy Transfer) Assay (Enzyme Assay Data in the Example Tables I and II)
The assay buffer used in this screen is 0.05 M acetate, pH 4.2, 10% DMSO final, 100 uM genapol (which is a nonionic detergent, below its Critical Micelle Concentration). […] This assay is effectively started by the addition of FRET substrate (50 nM) and the combination is incubated for one hour. The FRET assay is terminated with by addition of Tris buffer, which raises the pH to neutrality, and the fluorescence is determined. The FRET substrate is a peptide with commercially available fluorophore and quencher, on opposite sides of the BACE cleavage site. Proteolytic cleavage of the FRET substrate releases quenching of fluorescence (excitation […] and […]).

[3] = tested on: Aβ40 in conditioned medium of cells stably expressing Amyloid Precursor Protein (APP); assay: In vitro BACE cell-based assay (HEK cell assay), Aβ40 sandwich ELISA
Protocol: In Vitro BACE Cell-Based Assay
The cell-based assay measures inhibition or reduction of Aβ40 in conditioned medium of test compound treated cells expressing amyloid precursor protein.
Cells stably expressing Amyloid Precursor Protein (APP) were plated at a density of 40K cells/well in 96 well plates (Costar). The cells were cultivated for 24 hours at 37° C. and 5% CO2 in DMEM supplemented with 10% FBS. The test compounds were then added to cells in 10-point dose response concentrations with the starting concentration being either 100 μM or 10 μM. The compounds were diluted from stock solutions in DMSO and the final DMSO concentration of the test compounds on cells was 0.1%. After 24 h of incubation with the test compounds the supernatant conditioned media was collected and the Aβ 40 levels were determined using a sandwich ELISA. The IC50 of the compound was calculated from the percent of control or percent inhibition of Aβ 40 as a function of the concentration of the test compound.
The sandwich ELISA to detect Aβ 40 was performed in 96 well microtiter plates, which were pre-treated with goat anti-rabbit IgG (Pierce). The capture and detecting antibody pair that were used to detect Aβ 40 from cell supernatants were affinity purified pAb40 (Biosource) and biotinylated 6E10 (Signet Labs Inc.), respectively. The optimal concentration for the pAb40 antibody was 3 μg/ml in Superblock/TBS (Pierce) that was supplemented with 0.05% Tween 20 (Sigma).
Cellular supernatants were incubated with the capture antibody for 3 h at 4° C., followed by 3 wash steps in TBS-tween (0.05%). The detecting antibody incubation was for 2 h at 4° C., again followed by the wash steps as described previously. The final readout of the ELISA is Time-Resolved Fluorescence (counts per minute) using Delfia reagents Streptavidin-Europium and Enhancement solutions (Perkin Elmer) and the Victor 2 multilabel counter (Perkin Elmer).

[4] = tested on: Abeta 40; assay: In vivo inhibition of beta-secretase: Abeta 40 reduction in CSF and brain of the rat; conditions: 10 mpk (unless otherwise noted), after 4 hrs
Text: In Vivo Inhibition of Beta-Secretase
Several animal models, including mouse, rat, dog, and monkey, may be used to screen for inhibition of beta-secretase activity in vivo following administration of a test compound sample. Animals used in this invention can be wild type, transgenic, or gene knockout animals. […] One to twenty-four hours following the administration of compound, animals are sacrificed, and brains as well as cerebrospinal fluid (CSF) and plasma are removed for analysis of A-beta levels and drug or test compound concentrations (Dovey et al., 2001, Journal of Neurochemistry, 76, 173-181) Beginning at time 0, animals are administered by oral gavage, or other means of delivery such as intravenous injection, an inhibitory test compound of up to 100 mg/kg in a standard, conventional formulation, such as 2% hydroxypropyl methylcellulose, 1% Tween80. A separate group of animals receive 2% hydroxypropyl methylcellulose, 1% Tween80 alone, containing no test compound, and serve as a vehicle-control group. At the end of the test period, animals are sacrificed and brain tissues, plasma or cerebrospinal fluid are collected. Brains are either homogenized in 10 volumes (w/v) of 0.2% diethylamine (DEA) in 50 mM NaCl (Best et al., 2005, Journal of Pharmacology and Experimental Therapeutics, 313, 902-908), or in 10 volumes of 0.5% TritonX-100 in Tris-buffered saline (pH at about 7.6). Homogenates are centrifuged at 355,000 g, 4° C. for 30 minutes. CSF or brain supernatants are then analyzed for the presence of A-beta peptide by specific sandwich ELISA assays based on ECL (Electrochemiluminescence) technology. For example, rat Abeta40 is measured using biotinylated-4G8 (Signet) as a capture antibody and Fab40 (an in-house antibody specific to the C-terminal of Abeta40) as a detection antibody.
Actual vehicles used: Oral: 2% HPMC, 1% Tween80, pH 2.2

Sequence of Beta Secretase enzyme (BACE1) (P56817 46-501): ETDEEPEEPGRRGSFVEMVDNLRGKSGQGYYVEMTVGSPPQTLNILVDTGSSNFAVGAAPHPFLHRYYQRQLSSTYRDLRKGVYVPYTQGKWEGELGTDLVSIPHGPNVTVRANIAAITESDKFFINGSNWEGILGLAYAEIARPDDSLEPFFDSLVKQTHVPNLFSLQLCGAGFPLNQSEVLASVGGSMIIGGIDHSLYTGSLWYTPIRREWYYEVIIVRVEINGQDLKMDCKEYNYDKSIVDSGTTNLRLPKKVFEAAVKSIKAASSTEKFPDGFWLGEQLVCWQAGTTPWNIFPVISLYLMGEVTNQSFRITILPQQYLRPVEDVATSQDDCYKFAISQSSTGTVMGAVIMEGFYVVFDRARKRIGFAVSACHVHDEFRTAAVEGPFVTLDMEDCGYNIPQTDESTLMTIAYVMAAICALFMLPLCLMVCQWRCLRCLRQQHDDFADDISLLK
Sequence of Cathepsin D (Cat D) (P07339 65-412, species assumed): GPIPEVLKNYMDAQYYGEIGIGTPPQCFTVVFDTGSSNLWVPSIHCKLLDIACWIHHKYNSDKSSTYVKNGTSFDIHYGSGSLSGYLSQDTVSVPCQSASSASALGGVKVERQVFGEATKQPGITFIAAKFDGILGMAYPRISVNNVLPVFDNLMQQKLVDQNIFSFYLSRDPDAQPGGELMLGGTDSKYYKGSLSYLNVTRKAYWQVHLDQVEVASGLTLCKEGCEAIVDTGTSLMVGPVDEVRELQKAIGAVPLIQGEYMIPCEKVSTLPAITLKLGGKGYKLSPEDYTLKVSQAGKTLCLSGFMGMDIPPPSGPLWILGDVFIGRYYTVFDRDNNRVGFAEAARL

**Q.** How did the IC50 [1] turn out when `COc1cnc(C(=O)Nc2ccc(F)c([C@]3(C)CSCC(N)=N3)c2)cn1` [Example 43, (R)—N-(3-(5-amino-3-methyl-3,6-dihydro-2H-1,4-thiazin-3-yl)-4-fluorophenyl)-5-methoxypyrazine-2-carboxamide] was run?
**A.** > 400 µM

**Q.** What does the source list for `COc1cnc2c(Nc3cnc(F)c([C@]4(C)CS(=O)(=O)C(C)(C)C(N)=N4)c3)nccc2c1` [Example 66, N-(5-((3R)-5-amino-3,6,6-trimethyl-1,1-dioxido-3,6-dihydro-2H-1,4-thiazin-3-yl)-6-fluoro-3-pyridinyl)-3-methoxy-1,7-naphthyridin-8-amine]?
**A.** IC50 [1]: 101 µM; IC50 [2]: 0.0043 µM

**Q.** Which IC50 [1] does the source give for `CC1(C)C(N)=N[C@](C)(c2cc(Nc3nccc4cc(Cl)cnc34)cc(F)c2F)CS1(=O)=O` [Example 69, (R)-5-Amino-3-(5-((3-chloro-1,7-naphthyridin-8-yl)amino)-2,3-difluorophenyl)-3,6,6-trimethyl-3,6-dihydro-2H-1,4-thiazine 1,1-dioxide] here?
**A.** 11.3 µM

**Q.** And the IC50 [2]?
**A.** 0.0014 µM

**Q.** How did the IC50 [1] turn out when `C[C@]1(c2cc(NC(=O)c3cnc(C(F)F)cn3)ccc2F)N=C(N)C2(CCC2)S(=O)(=O)[C@@H]1F` [Example 140, N-(3-((6S,7R)-9-amino-6-fluoro-7-methyl-5,5-dioxido-5-thia-8-azaspiro[3.5]non-8-en-7-yl)-4-fluorophenyl)-5-(difluoromethyl)pyrazine-2-carboxamide] was run?
**A.** 400 µM

**Q.** `CC1(C)C(N)=NC2(c3cc(Br)ccc3F)COCC2S1(=O)=O` (stereo not drawn) [Example 185, 3-amino-4a-(5-bromo-2-fluorophenyl)-2,2-dimethyl-4a,5,7,7a-tetrahydro-2H-furo[3,4-b][1,4]thiazine 1,1-dioxide] was tested. Which IC50 [1] did it give?
**A.** 322 µM

**Q.** And the IC50 ([2]; average IC50, enzyme assay)?
**A.** 30.2 µM

**Q.** Which IC50 [1] does the source give for `CC1(C)C(N)=N[C@@]2(c3cc(Br)ccc3F)COC[C@H]2S1(=O)=O` [Example 185a, (4aS,7aS)-3-amino-4a-(5-bromo-2-fluorophenyl)-2,2-dimethyl-4a,5,7,7a-tetrahydro-2H-furo[3,4-b][1,4]thiazine 1,1-dioxide] here?
**A.** 70.9 µM

**Q.** What about the IC50 ([2]; average IC50, enzyme assay) of the same compound?
**A.** 4.83 µM

**Q.** What does the source list for `CC1(C)C(N)=N[C@]2(c3cc(Br)ccc3F)COC[C@@H]2S1(=O)=O` [Example 185b, (4aR,7aR)-3-amino-4a-(5-bromo-2-fluorophenyl)-2,2-dimethyl-4a,5,7,7a-tetrahydro-2H-furo[3,4-b][1,4]thiazine 1,1-dioxide]?
**A.** IC50 [1]: > 400 µM; IC50 ([2]; average IC50, enzyme assay): > 40 µM

**Q.** `CC1(C)C(N)=N[C@@]2(c3cc(N)ccc3F)COC[C@H]2S1(=O)=O` [Example 185c, (4aS,7aS)-3-amino-4a-(5-amino-2-fluorophenyl)-2,2-dimethyl-4a,5,7,7a-tetrahydro-2H-furo[3,4-b][1,4]thiazine 1,1-dioxide] was tested. Which IC50 ([1]; Cathepsin D FRET assay) did it give?
**A.** > 400 µM

**Q.** And the IC50 ([2]; average IC50, enzyme assay)?
**A.** > 40 µM

**Q.** Which IC50 ([1]; Cathepsin D FRET assay) does the source give for `CC1(C)C(N)=N[C@]2(c3cc(N)ccc3F)COC[C@@H]2S1(=O)=O` [Example 185d, (4aR,7aR)-3-amino-4a-(5-amino-2-fluorophenyl)-2,2-dimethyl-4a,5,7,7a-tetrahydro-2H-furo[3,4-b][1,4]thiazine 1,1-dioxide] here?
**A.** 152 µM

**Q.** What about the IC50 ([2]; average IC50, enzyme assay) of the same compound?
**A.** 3.83 µM

**Q.** Which IC50 ([3]; average IC50) does the source give for `Cc1ccc(Oc2ccc(F)c([C@]3(C)CS(=O)(=O)C(C)(C)C(N)=N3)c2)nc1` [Example 265, (5R)-5-(2-fluoro-5-((5-methyl-2-pyridinyl)oxy)phenyl)-2,2,5-3-amine 1,1-dioxide trimethyl-5,6-dihydro-2H-1,4-thiazin-3-amine 1,1-dioxide] here?
**A.** 0.804 µM

**Q.** For `CC1(C)C(N)=N[C@](C)(c2cc(NC(=O)c3cc4ccccc4cn3)ccc2F)CS1(=O)=O` [Example 343], which IC50 ([3]; average IC50, cell assay (Table II)) is on record?
**A.** 0.0107 µM

**Q.** Which IC50 ([3]; average IC50) does the source give for `CC1(C)C(N)=N[C@](C)(c2cc(Nc3ncnc4cc(C#N)cnc34)cnc2F)CS1(=O)=O` [Example 384] here?
**A.** 0.0239 µM

**Q.** `Cc1cc(Cl)cnc1C(=O)Nc1ccc(F)c([C@]2(CF)CS(=O)(=O)C(C)(C)C(N)=N2)c1` [Example 408, N-(3-((3S)-5-amino-3-(fluoromethyl)-6,6-dimethyl-1,1-dioxido-3,6-dihydro-2H-1,4-thiazin-3-yl)-4-fluorophenyl)-5-chloro-3-methyl-2-pyridinecarboxamide] was tested. Which “% reduction of rat CSF levels at 10 pmk” value [4] did it give?
**A.** 62%

**Q.** What about the “% reduction of rat brain levels at 10 mpk” value (“% reduction … at 10 mpk” for short) [4] of the same compound?
**A.** 37%

**Q.** Which results are given for `Cc1cc(OC(F)F)cnc1C(=O)Nc1ccc(F)c([C@]2(CF)CS(=O)(=O)C3(CCC3)C(N)=N2)c1` [Example 412, N-(3-((7S)-9-amino-7-(fluoromethyl)-5,5-dioxido-5-thia-8-azaspiro[3.5]non-8-en-7-yl)-4-fluorophenyl)-5-(difluoromethoxy)-3-methyl-2-pyridinecarboxamide]?
**A.** % reduction of rat CSF levels at 10 pmk [4]: 52%; % reduction of rat brain levels at 10 mpk [4]: 33%

**Q.** With `CC1(C)C(N)=N[C@](C)(c2cc(Nc3ccc4c(c3)OC(F)(F)O4)cnc2F)CS1(=O)=O` [Example 414, (5R)-5-(5-((2,2-difluoro-1,3-benzodioxo1-5-yl)amino)-2-fluoro-3-pyridinyl)-2,2,5-trimethyl-5,6-dihydro-2H-1,4-thiazin-3-amine 1,1-dioxide] as the compound, how does the IC50 ([3]; average IC50) read?
**A.** 2.53 µM

**Q.** With `COc1cnc2c(Nc3ccc(F)c([C@]4(CF)CS(=O)(=O)C(C)(C)C(N)=N4)c3)nccc2n1` [Example 447, N-(3-((3S)-5-amino-3-(fluoromethyl)-6,6-dimethyl-1,1-dioxido-3,6-dihydro-2H-1,4-thiazin-3-yl)-4-fluorophenyl)-2-methoxypyrido[3,4-b]pyrazin-5-amine] as the compound, how does the “% reduction of rat CSF levels at 10 pmk” value [4] read?
**A.** 62%

**Q.** And the “% reduction … at 10 mpk” value [4]?
**A.** 42%

**Q.** For `COc1ccc(C(=O)Nc2ccc(F)c([C@]3(CF)CS(=O)(=O)C(C)(C)C(N)=N3)c2)nc1` [Example 457, N-(3-((3S)-5-amino-3-(fluoromethyl)-6,6-dimethyl-1,1-dioxido-3,6-dihydro-2H-1,4-thiazin-3-yl)-4-fluorophenyl)-5-methoxy-2-pyridinecarboxamide], which “% reduction of rat CSF levels at 10 pmk” value [4] is on record?
**A.** 67%

**Q.** And the “% reduction … at 10 mpk” value [4]?
**A.** 50%

**Q.** With `COCc1cc(Cl)cnc1C(=O)Nc1ccc(F)c([C@]2(CF)CS(=O)(=O)C(C)(C)C(N)=N2)c1` [Example 458, N-(3-((3S)-5-amino-3-(fluoromethyl)-6,6-dimethyl-1,1-dioxido-3,6-dihydro-2H-1,4-thiazin-3-yl)-4-fluorophenyl)-5-chloro-3-(methoxymethyl)-2-pyridinecarboxamide] as the compound, how does the “% reduction of rat CSF levels at 10 pmk” value [4] read?
**A.** 35%

**Q.** And the “% reduction … at 10 mpk” value [4]?
**A.** 8%
